According to BindingDB's records for doi:10.1016/j.bmcl.2006.08.117 (Johnson & Johnson Pharmaceutical, 2006):

Target: Histamine H4 receptor (Homo sapiens, UniProt Q9H3N8)
Assay: Radioligand Binding Assay
Settings: pH 7.5; 25 °C
Method: The Ki values were calculated based on an experimentally determined appropriate Kd value according to Cheng and Prusoff.

Sequence of Histamine H4 receptor (Q9H3N8 whole entry): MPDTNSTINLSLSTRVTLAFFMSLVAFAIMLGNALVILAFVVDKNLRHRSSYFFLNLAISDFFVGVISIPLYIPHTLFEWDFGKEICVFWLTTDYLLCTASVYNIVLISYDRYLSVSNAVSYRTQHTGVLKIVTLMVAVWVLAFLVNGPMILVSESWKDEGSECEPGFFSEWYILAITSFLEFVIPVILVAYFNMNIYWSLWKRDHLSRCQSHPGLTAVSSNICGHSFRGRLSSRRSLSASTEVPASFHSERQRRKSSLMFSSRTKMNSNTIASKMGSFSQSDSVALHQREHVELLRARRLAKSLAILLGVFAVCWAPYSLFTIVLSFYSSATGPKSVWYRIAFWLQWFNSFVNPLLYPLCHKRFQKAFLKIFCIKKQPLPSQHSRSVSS

CN1CCN(CCCOc2ccc(-c3nc4cc(Cl)ccc4[nH]3)cc2)CC1 [5-chloro-2-{4-[3-(4-methylpiperazin-1-yl)propoxy]phenyl}-1H-1,3-benzodiazole]
Ki: 124 nM
